Like-named read-outs stand apart in the source and are kept apart here.
How the values were obtained:
[1] = molecular target: T1, P. aeruginosa EF-Tu (Pseudomonas aeruginosa, UniProt P09591); experiment: Equilibrium dissociation constants of EF-Tu·GDP and EF-Tu·GTP complexes (dilution, nitrocellulose filter binding)
T1 construct: made in house; host or cells: E. coli Rosetta 2(DE3), pET101/D-TOPO
Procedure: Reactions were carried out to determine the equilibrium dissociation constants (K GDP and K GTP) for the interaction of P. aeruginosa EF-Tu with GDP and GTP. The reaction was carried out in buffer B containing 1.3 μM total P. aeruginosa EF-Tu and 12 μM [^3H]GDP (500 cpm/pmol) or [^3H]GTP (750 cpm/pmol). EF-Ts was added to 0.05 μM as indicated. To form EF-Tu·nucleotide complexes, the reactions were incubated for 2 h at 0°C. To determine the total amount of complex formed (defined as active amounts of EF-Tu), reactions were immediately filtered through nitrocellulose filters following incubation. Reactions to determine K GDP and K GTP were diluted by the addition of 5 mL of buffer B that had been preincubated at 37°C, 23°C, or 0°C. Incubation was continued at those temperatures after dilution for 10, 20, and 30 min, respectively. Remaining amounts of the complexes were determined by filtration through nitrocellulose filters.
The percentage of EF-Tu capable of exchanging GDP (active EF-Tu) was determined from assays described in Section 3.6 which measured the total EF-Tu·[^3H]GDP complexes formed. In these assays, saturating amounts of [^3H]GDP (12 μM) were incubated with EF-Tu on ice for 2 h, and the total labeled EF-Tu·[^3H]GDP complex was determined using nitrocellulose filter binding, which retained the complex but not free GDP. The maximum amount of EF-Tu·GDP complex observed would be equivalent to the concentration of EF-Tu capable of exchanging GDP. Approximately 50% of EF-Tu was capable of forming an EF-Tu·[^3H]GDP complex. In the subsequent experiments containing EF-Tu, the results were based on the concentration of active EF-Tu.
The equilibrium dissociation constants for the EF-Tu·GDP (K GDP) and EF-Tu·GTP (K GTP) complexes were calculated from measurements of the extent of dissociation of the complexes in dilute solutions. Both complexes were formed by incubation at […] for 2 h in 50 μL reactions (Section 3.3). […] To determine dissociation, the 50 μL reactions were diluted by addition of 5 mL of reaction mix (minus enzyme and nucleotide) that had been preincubated to 37°C, 23°C, or 0°C, and incubation was continued at these temperatures for 10, 20, and 30 min, respectively. These were the conditions used to determine the K GDP for interaction of E. coli EF-Tu with GDP, and we maintained the same conditions in the determination of the K GTP.
The concentration of complex immediately after dilution was approximately 6.0 × 10^−3 μM. After incubation, the remaining EF-Tu·GDP complex was determined. Total GDP was calculated as the amount of added [^3H]GDP plus GDP that had copurified with EF-Tu. Free GDP was the amount of total GDP minus complexes formed, and free EF-Tu was the amount of initial complex minus remaining complex. The equilibrium dissociation constants for the complexes were calculated using the following equation: (1) KGD/TP=[EF−Tufree][GD/TPfree]/[EF−Tu·GD/TP]. We observed KGDP values for EF-Tu that ranged from 30 to 75 nM in the absence of EF-Ts at the temperatures in which the EF-Tu·GDP complex was allowed to dissociate (Table 2). Previous studies to determine the KGDP governing the binding of GDP to EF-Tu in the E. coli system included EF-Ts in the assays, and therefore we also carried out assays to determine the KGDP in the presence of EF-Ts. There was no statistical change of the KGDP observed in the presence of EF-Ts (30 to 40 nM). These values are within 3-fold of that seen in the E. coli system in which the equilibrium dissociation constant (5 to 10 nM) was determined in the presence of EF-Ts.

[2] = system: E. coli EF-Tu; conditions: cited from earlier work
[3] = molecular target: T1, P. aeruginosa EF-Tu; experiment: GDP exchange initial velocity assay (nitrocellulose filter binding); assay type: biochemical; conditions: for Km: EF-Tu 0.64 μM, 37°C, Lineweaver-Burk, read-out: KM for the interaction of EF-Tu with GDP
Procedure: Nitrocellulose filter binding assays were used to determine GDP exchange by EF-Tu as previously described. Assays to determine the initial velocity of GDP exchange were in buffer B (50 mM Tris-HCl, (pH 7.5), 50 mM NH4Cl, and 10 mM MgCl2, 1.0 mM dithiothreitol (DTT)) containing 12 μM [^3H]GDP (500 cpm/pmol). Reactions were incubated at 37°C and were stopped by diluting the reaction mix to 2 mL in buffer B and immediately filtered through nitrocellulose (Whatman; Protran BA 85). Filters were washed three times with 2 mL of buffer B and allowed to dry, and the amount of EF-Tu·[^3H]GDP complex retained was determined by scintillation counting (Beckman Coulter LS 6500). Initial velocity reactions were from 1 to 4 min, and GDP concentrations were varied as indicated.
Historically, the GDP exchange assay has been used to determine the activity of EF-Tu. […] The kinetic parameters KM and Vmax for the interaction of P. aeruginosa EF-Tu with GDP were determined by inserting the initial velocity data into Lineweaver-Burk plots (Figure 4(b)).

[4] = molecular target: Leu-tRNA^Leu and GTP (Pseudomonas aeruginosa, UniProt P09591); conditions: 1.2 μM [3H]Leu-tRNA^Leu, 0.5 mM GTP, 15 min 4°C, RNase A
Procedure: Ternary complex formation was assayed by examining the ability of EF-Tu to protect [^3H]Leu-tRNA^Leu ) from digestion by RNase A [21, 22]. EF-Tu (0, 0.6, 0.9, 1.2, 1.5, 1.8, 2.1, and 2.4 μM) was incubated in reaction mixtures (50 μL) containing 1.2 μM [^3H]Leu-tRNA^Leu, 0.5 mM GTP, 50 mM Tris-HCl, (pH 7.5), 1 mM DTT, 50 mM NH4Cl, and 6.5 mM MgCl2 for 15 min at 4°C. RNAase A was then added to a final concentration of 0.02 mg/mL and incubated for an additional 20 s. The reactions were stopped by the addition of 3 mL of ice-cold 5% trichloroacetic acid (TCA) and filtered through nitrocellulose filters (Whatman). Retention of [^3H]Leu signified EF-Tu protection of [^3H]Leu-tRNA^Leu from nuclease digestion [22].
To determine the ability of P. aeruginosa EF-Tu to form a ternary complex with Leu-tRNA^Leu and GTP, the nuclease protection assay was used [19, 22]. The nuclease protection assay measures the formation of a ternary complex by the ability of EF-Tu to protect the 3′ end of the tRNA with the covalently attached [^3H]Leu from digestion by RNase A [45]. […] Reactions contained enough RNase A to hydrolyze over 90% of the leucine away from tRNA^Leu .

[5] = system: P. aeruginosa ribosomes; experiment: Poly(U)-dependent binding of Phe-tRNA^Phe ternary complex to the ribosomal A-site; assay type: biochemical, Pseudomonas aeruginosa; conditions: 3.2 μM EF-Tu, 1 μM ribosomes, GDPNP
Procedure: To determine ternary complex binding to the ribosome, a mixture containing 50 mM Tris-HCl, (pH 7.5), 0.1 mM spermine, 40 mM KCl, 4 mM MgCl2, 1.0 mM DTT, 0.3 mM GTP or guanosine 5′-[β,γ-imido]triphosphate (GDPNP), 0.15 mg/mL poly(U) mRNA, 0.06 μM P. aeruginosa EF-Ts, 3.2 μM EF-Tu, 1.0 μM P. aeruginosa ribosomes, and 0.75 μM [^3H]Phe-tRNA^Phe (25 cpm/pmol) was used. The concentration of EF-Tu was varied from 0.32 to 1.6 μM as indicated. All components were preincubated at 37°C for 15 min in the absence of ribosomes to allow ternary complex formation. Ribosomes were then added, and incubation was continued for an additional 15 min at the same temperature. The amounts of [^3H]Phe-tRNA^Phe bound to the ribosome, representing ternary complex, were analyzed using glass microfiber filter (Whatman) binding as previously described. Control reactions lacked either EF-Tu or ribosomes.
Aminoacylated tRNA is bound at the ribosomal A-site in a ternary complex. The amount of aminoacylated tRNAs that can be bound to the A-site of the ribosome in a ternary complex was measured using [^3H]Phe-tRNA^Phe in poly(U)-dependent assays. In the absence of poly(U), a basal level of ternary complex will bind to the ribosome. In these assays, GTP was replaced with the nonhydrolyzable analog GDPNP to prevent hydrolysis of the nucleotide and dissociation of EF-Tu. […]

[6] = molecular target: Pseudomonas aeruginosa elongation factor Tu (Pseudomonas aeruginosa PAO1) (UniProt P09591)
Pseudomonas aeruginosa elongation factor Tu (Pseudomonas aeruginosa PAO1), sequence (P09591 whole entry): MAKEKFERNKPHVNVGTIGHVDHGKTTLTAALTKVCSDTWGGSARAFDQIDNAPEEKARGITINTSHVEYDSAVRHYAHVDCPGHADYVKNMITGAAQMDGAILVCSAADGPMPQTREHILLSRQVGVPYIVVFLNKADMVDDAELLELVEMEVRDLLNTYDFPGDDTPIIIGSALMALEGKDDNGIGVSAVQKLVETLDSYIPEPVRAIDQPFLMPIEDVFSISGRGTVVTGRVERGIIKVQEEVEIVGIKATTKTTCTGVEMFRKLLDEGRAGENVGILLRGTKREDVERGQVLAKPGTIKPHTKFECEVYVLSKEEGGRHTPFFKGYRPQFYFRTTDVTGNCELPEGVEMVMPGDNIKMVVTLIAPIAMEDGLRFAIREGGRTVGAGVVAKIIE

T1 sequence (P09591 whole entry): as above
Leu-tRNA^Leu and GTP, sequence (P09591 whole entry): as above

## Nc1nc2c(ncn2[C@@H]2O[C@H](COP(=O)(O)OP(=O)(O)O)[C@@H](O)[C@H]2O)c(=O)[nH]1 [GDP]
[1]; EF-Ts 0, 0°C, read-out: K GDP
  Kd: 58 nM
[1]; EF-Ts 0, 23°C, read-out: K GDP
  Kd: 38 nM
[1]; EF-Ts 0, 37°C, read-out: K GDP
  Kd: 72 nM
[1]; EF-Ts 0.5 ×10^−3 μM, 0°C, read-out: K GDP
  Kd: 43 nM
[1]; EF-Ts 0.5 ×10^−3 μM, 23°C, read-out: K GDP
  Kd: 30 nM
[1]; EF-Ts 0.5 ×10^−3 μM, 37°C, read-out: K GDP
  Kd: 34 nM
[2]
  GDP bound more tightly than GTP: up to 100 fold
[3]; absence of EF-Ts
  kcat obs for exchange of GDP by EF-Tu: 0.003 s⁻¹
  Km: 33 µM
[3]; presence of EF-Ts 0.01 μM
  kcat obs for exchange of GDP by EF-Tu: 0.005 s⁻¹
  Km: 2 µM

## Nc1nc2c(ncn2[C@@H]2O[C@H](COP(=O)(O)OP(=O)(O)OP(=O)(O)O)[C@@H](O)[C@H]2O)c(=O)[nH]1 [GTP]
[1]; EF-Ts 0, 0°C, read-out: K GTP
  Kd: 150 nM
[1]; EF-Ts 0, 23°C, read-out: K GTP
  Kd: 123 nM
[1]; EF-Ts 0, 37°C, read-out: K GTP
  Kd: 175 nM
[1]; EF-Ts 0.5 ×10^−3 μM, 0°C, read-out: K GTP
  Kd: 156 nM
[1]; EF-Ts 0.5 ×10^−3 μM, 23°C, read-out: K GTP
  Kd: 125 nM
[1]; EF-Ts 0.5 ×10^−3 μM, 37°C, read-out: K GTP
  Kd: 190 nM
[1]; P. aeruginosa EF-Tu
  binding of GTP weaker than binding of GDP (KGTP vs KGDP): up to 6 fold

## EF-Tu: recombinant elongation factor Tu from Pseudomonas aeruginosa, cloned, expressed and purified
[1]; 12 μM [3H]GDP, on ice 2 h
  EF-Tu capable of forming an EF-Tu·[3H]GDP complex (active EF-Tu): Approximately 50%
[1]; incubation 2 h in 50 μL reactions
  EF-Tu forming a complex with each form of the nucleotide (GDP, GTP): approximately 50%
[4]
  EF-Tu active in ternary complex formation: Up to 20%
[5]; 15 min
  share of the ternary complex formed that bound to the ribosome: approximately 90%
[5]; within 15 min, 37°C
  ribosomes with ternary complex bound to the A-site: approximately 50%
[3]; absence of EF-Ts
  specific activity for the exchange of GDP by EF-Tu: 0.0047 µmol/min/mg

B1: Pseudomonas aeruginosa elongation factor Ts (natural protein)
chain: AEITAAMVKELRERTGLGMMECKKALTAAGGDIEKAIDDMRAAGAIKAAKKAGNIAAEGSIAVKIAADNKAAVIIEVNSQTDFLALQDDFKGFVAESLEKAFNEKLTDAAPLVEAREEARLALVAKTGENVNIRRLTRVEGDVVGAYLHGHRIGVVVNLKGGNPELAKDIAMHVAASNPQFLSASEVSEEAIAKEKEIFLALNADKIAGKPENIVENMVKGRISKFLAEASLVEQPFVKNPEVKVGDLAKQAGAEIVSFVRYEVGEGIEKAEVDFAAEVAAQVAATKQ
[6]
  [3H]GDP exchange by EF-Tu (0.64 uM, 1 uM GDP) with 0.05 uM EF-Ts against without EF-Ts, nitrocellulose filter binding, 15 to 120 s, 37°C: 7 to 8 fold

Source: publication PMC3747624, “Cloning and Characterization of EF-Tu and EF-Ts from Pseudomonas aeruginosa” (BioMed Research International, 2013)
